Measurements from patent US20260284066A1, “TYK2 INHIBITORS AND COMPOSITIONS AND METHODS THEREOF” (LYNK PHARMACEUTICALS CO. LTD., priority 2023, published 2026).
≈ marks a conversion by molar mass, not a printed value.

Experiments:
[1] = Microsomal metabolic stability assay; assay type: in vitro ADME, human; conditions: for microsomal CLint at 1 µM / half-life at 1 µM: human, liver microsomes, pH 7.4, human liver microsomes 0.5 mg/mL; for microsomal CLint at 1 µM: read-out: Human LM Clint; for half-life at 1 µM: read-out: Human LM T½
Experimental: Microsomal Metabolic Stability Assay
Microsomes were pre-incubated with test compound or control compounds for 5 min at 37° C. in 100 mM potassium phosphate buffer, pH 7.4, 1.0 mM EDTA. The reaction was initiated by addition of 15 μL of the NADPH regenerating system to 30 μL of each incubation mixture per time point. The final incubation condition was composed of 0.5 mg/mL microsomal protein, 1 μM test article/positive control, 2 mM NADPH. The 0-minute samples were prepared by addition of a 30 μL aliquot of each incubation mixture to 135 μL quench reagent to precipitate proteins. And then a 15 μL aliquot of the NADPH regenerating system was added. At 5, 15, 30 and 45 minutes, the reaction will be stopped by the addition of cold acetonitrile solution containing internal standard. The samples taken at all time points were centrifuged at 5000×g for 15 minutes. 50 μL of supernatant are taken into 96-well assay plates pre-added with 50 μL ultrapure water, and then analyzed by LC/MS/MS.
Concentrations of test articles, control compounds in the samples were determined by using LC/MS/MS method. Plotting of the chromatograms and peak area integrations are carried out by Analyst (AB Sciex).
In the determination of the in vitro elimination constant (ke) of the control compounds, the analyte/internal standard peak area ratios will be converted to percentage remaining (% Remaining) with the following equation:
The CLint of microsomes was calculated using the formula: CLint (mic)=0.693/T1/2/mg microsome protein per mL. The slope was measured by the natural logarithm of the percentage of the residual compound and time, T1/2 was calculated according to the following formula.

[2] = system: Ba/F3-FL-TYK2-P760L cells; assay: Anti-proliferative assay in Ba/F3-FL-TYK2-P760L cells (Cell-Titer Glo); assay type: cell-based
Experimental: These engineered Ba/F3-FL-TYK2-P760L cells were used to monitor JAK inhibitory activities of the compounds in the cellular. […] Cells were seeded at 2000/well of white flat bottom 96-well plates. The well containing medium only was used as background control. […] The test compounds were dissolved in DMSO to a stock concentration of 20 mM. […] The final DMSO concentration was 0.1%. […] The viability was measured by cellular ATP determination using the Cell-Titer Glo luciferase reagent (Promega). The Luminescence value was recorded by a multi-label reader Envision (PerkinElmer). Inhibition Rate was calculated relative to vehicle (DMSO) treated control wells using following formula:
wherein • RLU_compound=the relative light unit of cells treated with test compounds • RLU_blank=the relative light unit of medium with DMSO only • RLU_control=the relative light unit of cells treated with DMSO only

TYK2-JH2 domain = biological target: T1, TYK2-JH2 domain (Homo sapiens, UniProt P29597); assay: Binding activity test for TYK2 JH2 domain (Tb-antibody/tracer FRET); conditions: for JAK1/TYK2 selectivity: ratio of JAK1 JH2 to TYK2 JH2 binding IC50; for IC50: read-out: TYK2 JH2 Binding IC50
T1 construct: JAK1-JH2 domain or TYK2-JH2 domain enzyme

JAK1-JH2 domain = biological target: T2, JAK1-JH2 domain (Homo sapiens, UniProt P23458); assay: Binding activity test for JAK1 JH2 domain (Tb-antibody/tracer FRET); conditions: read-out: JAK1 JH2 Binding IC50
T2 construct: JAK1-JH2 domain or TYK2-JH2 domain enzyme
Experimental: Binding Activity test for JH2 domain of JAK and TYK2
75 nL DMSO for high control and low control.
For low control, add 5 μL/well assay buffer. […] After enzyme system prepared, add 5 μL of Tb-antibody solution into each wells of assay plate. […] After Tb-antibody added, also add 5 μL of tracer into the assay plate. […] Incubate for 60 mins at 25° C. firstly and then continue to incubate the plate at 4° C. overnight. Read by envision in FRET mode. The Luminescence value was recorded by a multi-label reader Envision (PerkinElmer). Inhibition Rate was calculated relative to vehicle (DMSO) treated control wells using following formula:
wherein • RLU_compound=the relative light unit of cells treated with test compounds • RLU_low control=the relative light unit of medium with DMSO only • RLU_high control=the relative light unit of cells treated with DMSO only

pSTAT1 = assay: Phosphorylation inhibition of STAT in human whole blood (IFN-alpha stimulated, flow cytometry); assay type: cell-based; conditions: T-cell, CD3+ T cells, read-out: pSTAT1 inhibition in hWB (IC50)
Experimental: Phosphorylation Inhibition of STAT in Human Whole Blood Testing: The inhibitory potential of test articles in human whole blood assay was evaluated by the method of flow cytometry. IFN-alpha will activate JAK1 and TYK2 kinase in T cells by binding to IFN receptors, and then lead to phosphorylation of STAT1 and STAT2. The phosphorylated STAT1 enter nuclear and promote transcription and expression of IFN-gamma. To evaluate the efficacy of TYK2i in T cells, freshly collected human whole blood will be stimulated with certain unit of human IFN-alpha (Universal Type I IFN (1MU), R&D, 11200-2) for 20 mins in incubator. After stimulation, fix cells with PhosflowTM Fix Buffer I (BD, 557870), and then collect fixed cells by centrifugation (500 g, 8 min). Wash cells once with pre-cooled PBS, and then permeabilize cells with cold Perm Buffer III buffer (BD, 558050) for 45 mins on ice. Collect cells by centrifugation (600 g, 8 min) and washed twice with cold PBS. Stain cells with anti-human CD3(FITC Mouse Anti-Human CD3, BD, 555332) and anti-pSTAT1_Y701 (Alexa Fluor 647 Mouse Anti-Stat1 ([…]), BD, 612597) antibodies. Detect pSTAT1 by flow cytometry (CytoFlex S) and analyze data with FlowJo and GraphPad Prism 8 software. IC50 values of test articles were determined using 4-parameter logistic equation.

TYK2 = biological target: T3, TYK2 (Homo sapiens, UniProt P29597); assay: TYK2 kinase activity, microfluidic assay (Caliper); assay type: biochemical; conditions: TYK2 20 nM, 1 mM ATP
T3 construct: purchased Carna Biosciences
T3 sequence (P29597 897-1176 limits assumed): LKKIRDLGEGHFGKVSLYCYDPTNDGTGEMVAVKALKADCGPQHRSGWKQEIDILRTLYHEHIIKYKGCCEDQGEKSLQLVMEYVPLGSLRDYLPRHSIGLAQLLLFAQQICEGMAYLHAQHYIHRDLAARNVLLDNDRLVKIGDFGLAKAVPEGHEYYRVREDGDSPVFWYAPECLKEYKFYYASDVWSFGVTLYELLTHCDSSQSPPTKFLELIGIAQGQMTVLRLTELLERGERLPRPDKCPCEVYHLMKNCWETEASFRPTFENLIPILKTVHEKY
Experimental: (§1) Testing for JAK1, JAK2 and TYK2 Kinase Activities
(§2) JAK activity was determined in the reaction buffer 50 mM HEPES, 0.01% Brij35, 10 mM MgCl2, 2 mM DTT by a microfluidic assay. The phosphorylation of a FAM labeled peptide substrate was monitored in the Caliper EZ Reader II (Perkin Elmer). The assay condition for each batch of enzyme (Carna Biosciences) was optimized to obtain 10% conversion rate of peptide substrate.
(§3) The test compounds were dissolved in DMSO to a stock concentration of 10 mM. Three-fold serially diluted compounds with top concentration of 5 μM were pre-incubated with JAK1, JAK2 or TYK2 for 10 min at ambient temperature. The final DMSO concentration of assay mixture was 1%. […] The reaction was stopped by adding 50 mM EDTA.
(§4) And the well without compound but with equivalent DMSO was defined as no inhibition. The percent inhibition was calculated by the following formula:
(§5) wherein • Conversion %_max=the conversion rate in the positive well without addition of compound • Conversion %_sample=the conversion rate of test compounds • Conversion %_min=the conversion rate in the well without addition of enzyme
(§6) The dose-response (percent inhibition) curve was plotted and IC50 values were determined by GraphPad software. The IC50 values of tested compounds were list in Table 3.

JAK2 = biological target: T4, JAK2 (Homo sapiens, UniProt O60674); assay: JAK2 kinase activity, microfluidic assay (Caliper); assay type: biochemical; conditions: JAK2 1.5 nM, 1 mM ATP
T4 construct: purchased Carna Biosciences
Experimental: as §1, §2, §3, §4, §5, §6

TYK2 pathway = assay: IFN-γ release in NK92 cells stimulated by IL-12 (ELISA); assay type: cell-based; conditions: Homo sapiens, IL-12 2.5 ng/mL
Source text: IFN-γ Release in NK92 Cells Stimulated by IL-12
Purpose: To evaluate the inhibition activity of TYK2 inhibitors in NK92 cells on TYK2 pathway through ELISA method.

JAK1 = biological target: T5, JAK1 (Homo sapiens, UniProt P23458); assay: JAK1 kinase activity, microfluidic assay (Caliper); assay type: biochemical; conditions: JAK1 10 nM, 1 mM ATP
T5 construct: purchased Carna Biosciences
Experimental: as §1, §2, §3, §4, §5, §6

Kinetic solubility = assay type: physicochemical; conditions: aqueous buffer, 100 mM pH 7.4 phosphate buffer, 1% DMSO, room temperature, read-out: Kinetics Solubility_PBS7.4
Experimental: Aliquots of 8 μL of reference and test compound stock solutions (10 mM/5 mM) are added into 792 μL of 100 mM pH 7.4 phosphate buffer. The final DMSO concentration is 1%. Sample tubes are shaken for 2 hours at 1000 rpm at room temperature. Samples are centrifuged at 12000 rpm for 10 min to precipitate un-dissolved particles. And transfer the supernatants to a new tube or plate. Add 5 μL of samples (no diluted, 10 times diluted and 100 times diluted) and standard curve samples to 95 μL of ACN containing IS for LC-MS/MS analysis.

[3] = human liver microsomes 0.5 mg/mL, 1 μM

T2 sequence (P23458 583-855 limits assumed): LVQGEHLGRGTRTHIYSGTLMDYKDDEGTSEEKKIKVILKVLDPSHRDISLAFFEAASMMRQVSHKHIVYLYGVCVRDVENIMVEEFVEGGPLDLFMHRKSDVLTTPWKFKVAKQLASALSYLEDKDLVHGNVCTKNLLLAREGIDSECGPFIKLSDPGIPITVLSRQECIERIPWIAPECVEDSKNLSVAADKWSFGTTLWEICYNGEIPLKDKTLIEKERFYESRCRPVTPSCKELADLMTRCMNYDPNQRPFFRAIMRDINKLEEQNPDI
T1 sequence (P29597 589-875 limits assumed): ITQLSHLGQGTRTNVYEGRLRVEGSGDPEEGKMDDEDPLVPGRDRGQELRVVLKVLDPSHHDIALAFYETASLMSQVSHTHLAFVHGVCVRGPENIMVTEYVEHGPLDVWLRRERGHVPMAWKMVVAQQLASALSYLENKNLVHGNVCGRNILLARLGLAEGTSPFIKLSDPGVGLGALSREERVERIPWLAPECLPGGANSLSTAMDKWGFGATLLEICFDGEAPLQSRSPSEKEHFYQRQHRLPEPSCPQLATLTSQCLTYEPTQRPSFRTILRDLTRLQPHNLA
T4 sequence (O60674 849-1124 limits assumed): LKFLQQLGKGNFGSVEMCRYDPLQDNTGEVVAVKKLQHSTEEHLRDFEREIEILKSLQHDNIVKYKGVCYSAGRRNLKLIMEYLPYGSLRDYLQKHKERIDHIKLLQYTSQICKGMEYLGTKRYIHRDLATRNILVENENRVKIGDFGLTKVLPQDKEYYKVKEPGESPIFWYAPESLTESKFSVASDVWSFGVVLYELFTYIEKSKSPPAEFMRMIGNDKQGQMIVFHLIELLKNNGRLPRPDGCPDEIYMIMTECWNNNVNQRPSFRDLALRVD
T5 sequence (P23458 875-1153 limits assumed): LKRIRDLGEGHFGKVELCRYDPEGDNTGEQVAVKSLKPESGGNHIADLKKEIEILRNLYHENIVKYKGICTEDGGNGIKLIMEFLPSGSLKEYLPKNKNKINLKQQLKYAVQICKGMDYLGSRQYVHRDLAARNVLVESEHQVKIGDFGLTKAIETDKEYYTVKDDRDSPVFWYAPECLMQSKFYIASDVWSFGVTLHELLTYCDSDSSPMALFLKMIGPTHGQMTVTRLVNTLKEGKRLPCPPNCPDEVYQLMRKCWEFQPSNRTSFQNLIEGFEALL

Structure (SMILES)	microsomal CLint at 1 µM [1] [µL/min/mg]	half-life at 1 µM [1] [min]	IC50 [2] [nM]	JAK1/TYK2 selectivity (TYK2-JH2 domain)	IC50 (TYK2-JH2 domain) [nM]	IC50 (JAK1-JH2 domain) [nM]	Human LM Clint [1, 3] [µL/min/mg]	Human LM T½ [1, 3] [min]	IC50 (pSTAT1) [nM]	IC50 (TYK2) [nM]	IC50 (JAK2) [nM]	IC50 (TYK2 pathway) [nM]	IC50 (JAK1) [nM]	solubility kinetic at 2 h (Kinetic solubility) [µM]
[2H]C([2H])([2H])NC(=O)c1cnc(NC(=O)C2CC2)cc1Nc1ncn2ncc(C(C)C(F)(F)F)c2c1OC (single isomer, unassigned) [Example 5A, (R*)-6-(Cyclopropanecarboxamido)-4((4-methoxy-3-(1,1,1-trifluoropropan-2-yl)pyrazolo[1,5-c]pyrimidin-5-yl)amino)-N-(methyl-d3)nicotinamide]	57.5	24.1	> 5000	>197.55	1.51	> 298	–	–	–	–	–	–	–	–
[2H]C([2H])([2H])NC(=O)c1cnc(NC(=O)C2CC2)cc1Nc1ncn2ncc(C(C)C(F)(F)F)c2c1OC (single isomer, unassigned) [Example 5B, (S*)-6-(Cyclopropanecarboxamido)-4-((4-methoxy-3-(1,1,1-trifluoropropan-2-yl)pyrazolo[1,5-c]pyrimidin-5-yl)amino)-N-(methyl-d3)nicotinamide]	–	–	62.3	716.05	0.197	141	47.61	29.11	–	–	–	–	–	–
[2H]C([2H])([2H])NC(=O)c1cnc(NC(=O)C2CC2)cc1Nc1ncc2cnn(C(C)C(F)(F)F)c2c1OC (stereo not drawn) [Example 3, 6-(Cyclopropanecarboxamido)-4-((7-methoxy-1-(1,1,1-trifluoropropan-2-yl)-1H-pyrazolo[4,3-c]pyridin-6-yl)amino)-N-(methyl-d3)nicotinamide]	5.8	239	164	177.55	0.682	121	–	–	–	–	–	–	–	–
[2H]C([2H])([2H])NC(=O)c1cnc(Nc2ccc(N3CCOCC3)cn2)cc1Nc1ccc2cnn(CC(C)(F)F)c2c1OC [Example 4, 4-((1-(2,2-Difluoropropyl)-7-methoxy-1H-indazol-6-yl)amino)-N-(methyl-d3)-6-((5-morpholinopyridin-2-yl)amino)nicotinamide]	–	–	–	51.23	0.165	8.45	–	–	152	> 20000	> 20000	14	> 20000	61.8 (≈ 34.3 µg/mL)
[2H]C([2H])([2H])NC(=O)c1cnc(NC(=O)C2CC2)cc1Nc1ncn2ncc(C(C)C(F)(F)F)c2c1OC (stereo not drawn) [Example 5, 6-(Cyclopropanecarboxamido)-4-((4-methoxy-3-(1,1,1-trifluoropropan-2-yl)pyrazolo[1,5-c]pyrimidin-5-yl)amino)-N-(methyl-d3)nicotinamide]	–	27.7	52.4	590.59	0.271	160	50.06	–	–	–	–	–	–	–
[2H]C([2H])([2H])NC(=O)c1cnc(NC(=O)C2CC2)cc1Nc1ccc2ccn(CC(C)(F)F)c2c1OC [Example 17, 6-(Cyclopropanecarboxamido)-4-((1-(2,2-difluoropropyl)-7-methoxy-1H-indol-6-yl)amino)-N-(methyl-d3)nicotinamide]	–	–	–	121.60	0.341	41.5	–	–	–	–	–	21.7	–	11.1 (≈ 5.12 µg/mL)
CNC(=O)c1cnc(NC(=O)C2CC2)cc1Nc1ncc2cnn(CC(C)(F)F)c2c1OC [Example 23, 6-(Cyclopropanecarboxamido)-4-((1-(2,2-difluoropropyl)-7-methoxy-1H-pyrazolo[4,3-c]pyridin-6-yl)amino)-N-methylnicotinamide]	–	–	–	398.70	0.315	126	–	–	–	> 20000	> 20000	17.4	> 20000	–
[2H]C([2H])([2H])NC(=O)c1nnc(NC(=O)C2CC2)cc1Nc1ncc2cnn(CC(C)(F)F)c2c1OC [Example 24, 6-(Cyclopropanecarboxamido)-4-((1-(2,2-difluoropropyl)-7-methoxy-1H-pyrazolo[4,3-c]pyridin-6-yl)amino)-N-(methyl-d3)pyridazine-3-carboxamide]	4.16	333	–	79.86	0.271	21.6	–	–	–	> 20000	> 20000	8.94	> 20000	–
